# Results taken from PMC4360945, “In silico discovery and validation of potent small-molecule inhibitors targeting the activation function 2 site of human oestrogen receptor α” (Breast Cancer Research : BCR, 2015).
# Several values for one entry are separate records, joined by “and”; a condition that tells them apart may be missing. Equal entries are not always repeated. Entries after “also recorded” stand apart in the source; their conditions may differ.
# T1: ERα LBD (Homo sapiens, UniProt P03372)
# T1 construct: ERα LBD (peptides 302 to 552); made in house; host or cells: Escherichia coli BL21
# T1 sequence (P03372 302-552): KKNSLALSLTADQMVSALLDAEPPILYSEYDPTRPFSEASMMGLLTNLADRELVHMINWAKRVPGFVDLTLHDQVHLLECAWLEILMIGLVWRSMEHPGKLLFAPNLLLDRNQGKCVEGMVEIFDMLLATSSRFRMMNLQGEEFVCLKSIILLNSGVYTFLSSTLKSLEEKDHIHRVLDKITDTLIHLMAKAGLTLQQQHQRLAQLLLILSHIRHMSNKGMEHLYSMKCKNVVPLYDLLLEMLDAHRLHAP
# T2: ERα AF2 site (GST-tagged ER-LBD) (Homo sapiens, UniProt P03372)
# T2 construct: glutathione S-transferase (GST)-tagged ER-LBD (7.25 nM); purchased Life Technologies PV4544
# T2 sequence (P03372 311-547 limits assumed): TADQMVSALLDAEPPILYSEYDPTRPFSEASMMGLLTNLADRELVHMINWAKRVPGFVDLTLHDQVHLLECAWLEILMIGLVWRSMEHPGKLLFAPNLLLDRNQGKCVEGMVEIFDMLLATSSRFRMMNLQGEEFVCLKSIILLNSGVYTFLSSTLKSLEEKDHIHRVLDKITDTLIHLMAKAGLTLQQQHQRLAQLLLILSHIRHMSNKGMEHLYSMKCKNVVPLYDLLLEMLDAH
# T3: oestrogen receptor-alpha (ERα) (Homo sapiens, UniProt P03372)
# T3 sequence (P03372 1-595): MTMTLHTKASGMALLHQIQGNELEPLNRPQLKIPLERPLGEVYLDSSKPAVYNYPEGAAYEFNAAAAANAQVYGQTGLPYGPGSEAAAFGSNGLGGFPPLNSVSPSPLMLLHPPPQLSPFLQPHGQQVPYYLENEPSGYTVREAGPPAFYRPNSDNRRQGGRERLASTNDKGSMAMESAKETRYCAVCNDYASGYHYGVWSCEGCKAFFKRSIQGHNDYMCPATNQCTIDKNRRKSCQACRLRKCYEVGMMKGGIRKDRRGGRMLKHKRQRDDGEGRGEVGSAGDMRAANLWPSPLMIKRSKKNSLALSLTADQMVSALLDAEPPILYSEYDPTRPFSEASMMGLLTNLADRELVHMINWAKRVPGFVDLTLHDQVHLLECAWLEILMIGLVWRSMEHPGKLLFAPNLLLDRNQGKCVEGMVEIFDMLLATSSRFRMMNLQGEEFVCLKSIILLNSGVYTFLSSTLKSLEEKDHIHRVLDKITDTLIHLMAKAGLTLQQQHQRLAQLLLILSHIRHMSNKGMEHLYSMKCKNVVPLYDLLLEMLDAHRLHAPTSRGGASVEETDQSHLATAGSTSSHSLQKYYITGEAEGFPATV
# T4: biotinylated oestrogen receptor-alpha ligand-binding domain (bERα LBD) (human, UniProt P03372 302-552, biotin on the AviTag)
# T4 construct: Assay buffer held 0.02 mM E2
# T4 sequence (looked up): T1 sequence (P03372 302-552)
# B1: Cold peroxisome proliferator-activated receptor gamma, coactivator 1-alpha (PGC-1α) peptide (peptide)
# peptide: EAEEPSLLKKLLLAPANTQ
# notes: also called cold PGC-1α peptide; cold PGC-1α; source: synthetic peptide (Elim Biopharmaceuticals)
# Experiments:
# TamR3 cells = experiment: MTS assay, TamR3; format: cell-based, human
# Experimental: (§1) Cells were seeded in 96-well plates at a density of 5 × 10^3 cells/well. MCF7, […]-MB-453 and HeLa cells were seeded in their respective media. […] After 96 hours, 30 μl of MTS reagent (CellTiter 96 AQueous One Solution Cell Proliferation Assay reagent; Promega) were added and incubated for 90 minutes at 37°C in 5% CO2. The production of formazan was measured at 490 nm.
# TamR6 cells = experiment: MTS assay, TamR6; format: cell-based, human
# Experimental: as §1
# ERα LBD = biological target: T1, ERα LBD; experiment: Bio-layer interferometry assay; format: binding; details: 3 to 100 μM
# Source text: The direct reversible interaction between small molecules and the ER-α was quantified by BLI using an Octet RED apparatus (Pall ForteBio, Menlo Park, CA, USA). The LDB of the biotinylated oestrogen receptor-alpha (bERα) was produced in situ with AviTag technology (Avidity, Aurora, CO, USA). […] A six-residue histidine tag was incorporated at the C-terminus of the ERα LBD for purification of the protein. […] The bacteria were then lysed by sonication, and the resulting lysate was purified by immobilised metal ion affinity chromatography with nickel agarose beads and cation exchange chromatography (HiTrap SP; GE Healthcare Life Sciences, Pittsburgh, PA, USA). […] The compounds were dissolved in the assay buffer in a twofold dilution series ranging from 3.1 to 100 μM.
# The ERα LBD was biotinylated on the AviTag by a biotin ligase expressed by the bacterial cells cotransformed with the biotin ligase plasmid pBirACm. The bERα LBD was purified by nickel-affinity chromatography and immobilised on streptavidin-coated biosensor tips. The interaction between small molecule and protein was measured in real time as a shift in the interference pattern of the incident light. A response profile was generated on the Octet RED system.
# [1] = biological target: T2, ERα AF2 site (GST-tagged ER-LBD); experiment: TR-FRET ERα coactivator (PGC-1α peptide) displacement assay; format: biochemical
# Experimental: Peptide displacement was assessed with the LanthaScreen TR-FRET ER Alpha Coactivator Assay kit (PV4544; Life Technologies) as per the instructions of the manufacturer. The compounds were tested in the range of 0.1 to 50 μM, and cold PGC-1α was added at threefold dilutions ranging from 1.8 to 50 μM.
# Briefly, a twofold serial dilution of the test compounds was prepared at 100× final concentration in DMSO. The compounds were diluted 50-fold in complete assay buffer (assay buffer containing 5 mM dithiothreitol) to get a 2× final concentration and 2% DMSO. […] Ten microlitres of the diluted test compounds were added to a black, flat-bottomed, 384-well plate, followed by addition of 5 μl of the 4× ER-LBD mix.
# Tb-labelled anti-GST antibody indirectly labels the ERα LBD by binding to a GST tag on the protein. […] The close proximity of fluorescein-PGC-1α to the terbium-labelled antibody causes an increase in the TR-FRET signal.
# [2] = system: pS2, cathepsin D and CDC2 mRNA; experiment: Quantitative RT-PCR of oestrogen-responsive genes in MCF7 cells; format: cell-based, human; details: MCF7, 24 h
# Experimental: mRNA levels were analysed by quantitative RT-PCR (qRT-PCR). For this purpose, serum-starved MCF7 cells were seeded onto six-well plates at a density of 6 × 10^5 cells/well. […] RNA was isolated after 24 hours with TRIzol reagent (Life Technologies) and purified with the RNeasy Mini Kit (QIAGEN, Valencia, CA, USA). The purified mRNA was quantified using a NanoDrop spectrophotometer (NanoDrop, Wilmington, DE, USA). RNA (0.5 μg) was reverse-transcribed using the iScript synthesis kit (Bio-Rad Laboratories, Hercules, CA, USA). cDNA product (100 ng) was added to the primer mix. The final concentration of the primers was 5 pM. The sequences of the primers used in the qRT-PCR experiments were as follows: pS2, forward [NT] and reverse [NT]; cathepsin D, forward [NT] and reverse [NT]; CDC2, forward [NT] and reverse [NT]; glyceraldehyde 3-phosphate dehydrogenase (GAPDH), forward [NT] and reverse [NT]. The fold change in expression of the gene was calculated using the 2^-ΔΔCt method with GAPDH as the internal control.
# [3] = biological target: T3, oestrogen receptor-alpha (ERα); experiment: Transiently transfected E2-responsive luciferase reporter in TamR3 cells; format: cell-based; set-up: endogenous in cells; details: TamR3, 1 nM E2; read-out: IC50, transcriptional inhibition of transiently transfected E2-responsive luciferase reporter
# Experimental: (§2) For transient transfection, we used pGL2.TATA.Inr.luc plasmid, which contains three copies of vitellogenin oestrogen response element (ERE) upstream of the TATA promoter (3X ERE TATA luc; Addgene plasmid 11354). This is the same plasmid used to construct pGL2.TATA.Inr.luc.neo, used to create the stable cell line T47D-KBluc.
# (§3) TamR3 and TamR6 cells were grown in phenol red–free RPMI 1640 supplemented with 10% CSS and 1 μM tamoxifen. The cells were seeded on a 96-well plate (2 × 10^4 cells/well). After 24 hours, the cells were cotransfected with 50 ng each of the ERα-responsive luciferase plasmid and a constitutive Renilla reporter (to normalise for variations in transfection efficiency) using TransIT-2020 reagent (Mirus Bio, Madison, WI, USA). […] The compounds were added in a twofold dilution ranging from 0.1 to 50 μM. […] The medium contained 0.1% (v/v) ethanol and 0.1% (v/v) DMSO. Twenty-four hours after treatment, the medium was aspirated and the cells were lysed by adding 50 μl of 1× passive lysis buffer (Promega). Luciferase activities were assayed using the Dual-Luciferase Reporter Assay System (Promega).
# MCF7 cells = experiment: MTS assay, MCF7; format: cell-based, human; details: MCF7, 96 h, 1 nM E2; read-out: IC50, growth inhibition
# Experimental: as §1
# [4] = biological target: T3, oestrogen receptor-alpha (ERα); experiment: Transiently transfected E2-responsive luciferase reporter in TamR6 cells; format: cell-based; set-up: endogenous in cells; details: TamR6, 1 nM E2; read-out: IC50, transcriptional inhibition of transiently transfected E2-responsive luciferase reporter
# Experimental: as §2, §3
# [5] = biological target: T3, oestrogen receptor-alpha (ERα); experiment: Luciferase oestrogen receptor-alpha transcriptional assay in T47D-KBluc cells; format: cell-based; set-up: endogenous in cells; host or cells: T47D-KBluc
# Experimental: ERα-positive T47D-KBluc human BCa cells were grown in phenol red–free RPMI 1640 supplemented with 10% CSS for 5 days. The cells were seeded on a 96-well plate (2 × 10^4 cells/well). […] The test compounds were screened at two concentrations: 12 μM and 30 μM. […] The medium contained 0.1% (v/v) ethanol and 0.1% (v/v) DMSO. Twenty-four hours after treatment, the medium was aspirated and the cells were lysed by adding 50 μl of 1× passive lysis buffer (Promega, Madison, WI, USA). The plates were placed on a shaker at room temperature for 15 minutes and then subjected to two freeze–thaw cycles to help lyse the cells. Next, 20 μl of the lysate from each treatment was transferred onto a white, 96-well, flat-bottomed plate (Corning Life Sciences, Corning, NY, USA), and the luminescent signal was measured after adding 50 μl of the luciferase assay reagent (Promega) on a TECAN M200 PRO microplate reader (Tecan, Männedorf, Switzerland). Differences in growth were normalised against total protein concentration, which was measured by bicinchoninic acid (BCA) assay.
# [6] = system: pS2, cathepsin D and CDC2 protein; experiment: Western blotting of oestrogen-responsive gene products in MCF7 cells; format: cell-based, human; details: MCF7, 24 h, 1 nM E2; 12 and 6 μM
# Experimental: MCF7 cells were serum-starved in phenol red–free RPMI 1640 containing 10% CSS for 5 days. […] After 24 hours, the medium was aspirated, and the cells were washed with ice-cold phosphate-buffered saline. Cells were lysed in 1× radioimmunoprecipitation assay buffer containing one tablet of cOmplete protease inhibitor cocktail (Roche Life Science, Indianapolis, IN, USA). Cell debris was pelleted by centrifugation at 15,000 g for 10 minutes at 4°C. The supernatants were collected and quantified using the BCA assay. In each case, 25 μg of protein was loaded onto 15% (v/v) SDS-PAGE gels, separated and transferred to polyvinylidene fluoride membrane. Membranes were incubated with pS2, cathepsin D and CDC2 antibodies or control α-actin antibody. Bound antibodies were detected using horseradish peroxidase–conjugated secondary antibodies. Chemiluminescence was detected with an Amersham ECL detection kit (GE Healthcare Life Sciences), and bands were visualised using the G:BOX imager (Syngene, Frederick, MD, USA).
# [7] = biological target: T4, biotinylated oestrogen receptor-alpha …; experiment: BLI; Octet RED; bERα LBD bound to Super Streptavidin Sensors; 20 mM Tris pH 7.5, 500 mM NaCl, 0.2 mM TCEP, 0.02 mM E2, 5% glycerol, 5% DMSO; PGC-1α peptide in solution as positive control; details: both partners purified
molecule,measurement,setting,value
"CC/C(=C(\c1ccccc1)c1ccc(OCCN(C)C)cc1)c1ccccc1 [tamoxifen, reference compound]",Growth in the presence of 1 μM tamoxifen,"TamR3 cells; TamR3, 1 μM in the medium",not affected
same,Growth in the presence of 1 μM tamoxifen,"TamR6 cells; TamR6, 1 μM in the medium",not affected
"cold PGC-1α peptide: Cold PGC-1α coactivator peptide (EAEEPSLLKKLLLAPANTQ), known AF2-interacting control [reference compound]",Binding to ERα LBD by BLI,ERα LBD,direct and reversible interaction
same,FRET signal with increasing concentration of cold peptide,[1]; 1.8 to 50 μM,dose-dependent decrease
CCOc1cc(Br)cc(/C=N/NC(=O)c2ccc3c(c2)OCCO3)c1O [VPC-16230],IC50,"TamR3 cells; TamR3, 96 h, 1 nM E2, read-out: IC50, growth inhibition",3.4 µM
same,"mRNA levels of pS2, cathepsin D and CDC2","[2]; in the absence of E2, 12, 6 and 3 μM",did not significantly inhibit; also recorded: did not significantly decrease
same,"mRNA levels of pS2, cathepsin D and CDC2","[2]; in the presence of 1 nM E2, 12 and 6 μM",considerably reduced; also recorded: significantly decreased
same,IC50,[3],4.7 µM
same,Binding to ERα LBD by BLI,ERα LBD,direct and reversible interaction
same,IC50,MCF7 cells,7.8 µM
same,IC50,"[1]; TR-FRET, read-out: IC50, displacement of PGC-1α peptide from the AF2 site",2.98 µM
same,Shift of dose-response curve with increasing fluorescein-PGC-1α,"[1]; fluorescein-PGC-1α 250, 500, 1000 nM, compounds 0.05 to 400 μM",rightward shift
same,IC50,"TamR6 cells; TamR6, 96 h, 1 nM E2, read-out: IC50, growth inhibition",6.3 µM
same,IC50,[4],4.7 µM
same,IC50,"[5]; T47D-KBluc cells, 1 nM E2, 24 h, read-out: IC50, inhibition of ERα transcriptional activity (luciferase reporter)",5.81 µM and 5.8 µM
same,Shift of the IC50 curve in the presence of higher concentrations of E2,"[5]; T47D-KBluc, E2 1, 10, 50, 100 nM",did not show any significant shift
same,IC50,"[5]; read-out: IC50, luciferase assay at varied E2, T47D-KBluc, E2 1 nM",6.1 µM
same,IC50,"[5]; read-out: IC50, luciferase assay at varied E2, T47D-KBluc, E2 100 nM",6.5 µM
same,"Protein levels of pS2, cathepsin D and CDC2",[6],decreased
B1,binding result,[7],binds
